# Results: patent US8946327B2, “Method for producing synthetic amylospheroid” (Tao Health Life Pharma., Ltd., priority 2011, dated 2015)
# System: primary cultured neurons derived from hippocampus of mature rat
# Assay: Cytotoxicity test (Cell Death Detection ELISA, apoptosis)
# Format: cell-based
# Description: The formation of ASPD was confirmed by the following cytotoxicity test. A certain amount of ASPD was administered overnight to primary cultured neurons (more than 19 days after starting culture) derived from hippocampus of mature rat, and the neurotoxicity was measured in accordance with protocols using Cell Death Detection ELISA manufactured by Roche Diagnostics. This is an ELISA kit for quantitative detection of histone-complexed DNA fragmentation in the cells caused by apoptosis.
Compound,"cytotoxicity (neurotoxicity) (solution containing the same concentration of DEHP and not containing synthetic ASPD, data not shown)","cytotoxicity (neurotoxicity) (solution containing synthetic ASPD before purification, 1, 2 and 4 μM in terms of Aβ42, administered overnight, compared with Comparative Example 1 (DEHP−), FIG. 2)"
"CCCCC(CC)COC(=O)c1ccccc1C(=O)OCC(CC)CCCC (centres unmarked) [DEHP, bis(2-ethylhexyl)phthalate]",No cytotoxicity,
Example 1: synthetic ASPD (amylospheroid) formed from Aβ42 by agitation using 65 mM DEHP/DMSO solution,,significant cytotoxicity in a concentration-dependent manner
